What was measured:
[1] = test system: AdVhAFP/DC immunized murine splenocytes; experiment: IFNg ELISPOT restimulation of AdVhAFP/DC immunized murine splenocytes with HPLC fractions eluted from HepG2 or Hep3B; format: cell-based; details: HPLC fractions from Hep3B elution
Method: To elute peptides, HepG2 and Hep3B cells were washed three times with PBS before being incubated with 5 ml of citrate-phosphate buffer at pH 3.2 for 1 minute. The suspension was centrifuged (800×g for 5 minutes) and a total of 500 ml of cell-free supernatant was collected for each cell line. The materials were lyophilized to dryness and stored at −20° C.
Lyophilized materials were redissolved in 30 ml of water/acetonitrile/triflouroacetic acid (W/A/TFA, 95/5/0.1 all by vol.). This solution was pumped onto an analytical reverse phase HPLC column (Keystone Scientific C18 Betasil, 250 mm×2 mm, […] particle size, 100 Å pore size) equilibrated in W/A/TFA, at a flow rate of 0.2 ml/min. The column was eluted using an increasing linear gradient of 0.1% TFA in acetonitrile (time/%acetonitrile=0/5, 5/5, 55/100, 60/100). Column eluate absorbance was monitored at 215 and 280 nm and 1 minute fractions were collected. The retention times of the synthetic peptides with amino acid sequences corresponding to the immunostimulatory peptides were obtained using the same separation gradient on a separate column.
To confirm the presence of dominant peptides in these fractions immunologically, […] of each HPLC fraction from either HepG2 or Hep3B cells was used to restimulate AdVhAFP/DC immunized murine splenocytes in an ELISPOT assay. 200–250 spots/10^6 cells were observed from fractions containing dominant peptides, where 100–130 spots/10^6 cells were observed from the other fractions, and a maximum of 50 spots/10^6 cells were observed from Hep3B fractions. This further supports the mass spectrometry identification of the dominant peptides.

[2] = test system: AFP positive/A2.1+ hepatocellular carcinoma; experiment: immunization of hepatocellular carcinoma patients with the four peptides in Montanide ISA-51, peripheral T cell responses by ELISPOT and tetramer; format: in vivo, human; details: for in vivo T cell responses: patient AFP-A1, 100 μg each peptide, after the second and third immunization; for T cell responses by tetramer and ELISPOT: patient AFP-A2, following two immunizations
Method: The method and compositions of the present invention were used to treat several patients with AFP positive/A2.1+ hepatocellular carcinoma. Each of the patients were immunized with the four peptides hAFP137-145, residues 137–145 of SEQ ID NO:2; hAFP158-166, residues 158–166 of SEQ ID NO:2; hAFP325-334, residues 325–334 of SEQ ID NO:2; and hAFP542-550, residues 542–550 of SEQ ID NO:2, according to the this method. The peptides were emulsified in 0.5 ml of Montanide™ ISA-51 and combined for a total of 2 ml. The emulsified peptides were divided into four equal doses and each dose was administered in a separate site. Peripheral T cell responses are measured by ELISPOT and tetramer assays.
(§1) They were administered three immunizations of 100 μg each of the four peptides in Montanide™ ISA at two week intervals. Parallel in vitro PBMC cultures were also established from the first patient's blood before immunization and repetitively pulsed with each peptide. […] The presence of AFP542-specific T cells could not be assessed by tetramer as an AFP542 peptide tetramer could not be folded by the facility where these reagents are prepared.
The second patient, designated AFP-A2 was a person with a history of ethanol-induced liver cirrhosis, who was negative for both Hepatitis B and C. […] Their AFP level at presentation was 10,400 ng/ml. […] Seven months after presentation, they were then begun on a combination of the four peptides hAFP137-145, residues 137–145 of SEQ ID NO:2; hAFP158-166, residues 158–166 of SEQ ID NO:2; hAFP325-334, residues 325–334 of SEQ ID NO:2; and hAFP542-550, residues 542–550 of SEQ ID NO:2 using the protocol according to the present invention. They received two immunizations two weeks apart.

[3] = test system: PBMC cultures; experiment: parallel in vitro PBMC cultures of patient AFP-A1 repetitively pulsed with each peptide; format: cell-based, human; details: patient AFP-A1, day 28 cultures
Method: as §1

Sequence	Immunologically Reactive Fractions (IFNg ELISPOT) Hep3B [1]	in vivo T cell responses [2]	T cell responses by tetramer and ELISPOT [2]	in vitro recognition by tetramer [3]
FMNKFIYEI (listed as Homo sapiens) [hAFP158-166, dominant HLA-A*0201 peptide derived from human alpha fetoprotein]	0	clear recognition	T cell responses were detected	–
GLSPNLNRFL (listed as Homo sapiens) [hAFP325-334, dominant HLA-A*0201 peptide derived from human alpha fetoprotein]	0	trend towards recognition	T cell responses were detected	clear in vitro recognition
GVALQTMKQ (listed as Homo sapiens) [hAFP542-550, dominant HLA-A*0201 peptide derived from human alpha fetoprotein]	0	clear recognition	T cell responses were detected	–
PLFQVPEPV (listed as Homo sapiens) [hAFP137-145, dominant HLA-A*0201 peptide derived from human alpha fetoprotein]	0	clear recognition	T cell responses were detected	clear in vitro recognition
